This passage reports Ratio Ki, Ki and Drug metabolism results from ChEMBL document CHEMBL4359839, “The Significance of Chirality in Drug Design and Synthesis of Bitopic Ligands as D3 Receptor (D3R) Selective Agonists” (J Med Chem, 2019).

The species named for data set [1] is Homo sapiens. The data set can be described thus: Selectivity ratio of Ki for displacement of [3H]-(R)-(+)-7-OH-DPAT from recombinant human D2L receptor expressed in HEK293 cell membranes to Ki for displacement of [3H]-(R)-(+)-7-OH-DPAT from recombinant human D3 receptor expressed in HEK293 cell membranes.
The target of another data set is D(2) dopamine receptor (Homo sapiens, UniProt P14416). The data set can be described thus: Displacement of [3H]-(R)-(+)-7-OH-DPAT from recombinant human D2L receptor expressed in HEK293 cell membranes measured after 90 mins by microbeta scintillation counting analysis.
The target in the next data set is D(3) dopamine receptor (Homo sapiens, UniProt P35462). The data set can be described thus: Displacement of [3H]-(R)-(+)-7-OH-DPAT from recombinant human D3 receptor expressed in HEK293 cell membranes measured after 90 mins by microbeta scintillation counting analysis. For orientation: Displacement assays read how much labelled ligand stays bound in the presence of the test substance.

Another data set addresses T1, D(4) dopamine receptor (Homo sapiens, UniProt P21917).
T1 sequence (P21917 whole entry): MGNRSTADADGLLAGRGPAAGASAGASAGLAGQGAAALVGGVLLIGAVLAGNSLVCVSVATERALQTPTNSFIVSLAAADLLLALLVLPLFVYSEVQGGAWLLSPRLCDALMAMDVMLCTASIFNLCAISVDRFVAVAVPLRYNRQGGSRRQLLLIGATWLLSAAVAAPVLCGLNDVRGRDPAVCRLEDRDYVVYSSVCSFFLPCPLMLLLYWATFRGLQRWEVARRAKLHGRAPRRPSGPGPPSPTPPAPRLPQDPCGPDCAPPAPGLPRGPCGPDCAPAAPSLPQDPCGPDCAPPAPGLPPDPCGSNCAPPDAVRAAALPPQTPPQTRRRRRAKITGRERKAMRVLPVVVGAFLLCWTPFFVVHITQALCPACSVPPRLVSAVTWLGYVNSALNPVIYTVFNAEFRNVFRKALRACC
The data set can be described thus: Displacement of [3H]-(R)-(+)-7-OH-DPAT from recombinant human D4.4 receptor expressed in HEK293 cell membranes measured after 90 mins by microbeta scintillation counting analysis.

For data set [2], the species on record is Homo sapiens. The data set is described as follows: Selectivity ratio of Ki for displacement of [3H]-(R)-(+)-7-OH-DPAT from recombinant human D4.4 receptor expressed in HEK293 cell membranes to Ki for displacement of [3H]-(R)-(+)-7-OH-DPAT from recombinant human D3 receptor expressed in HEK293 cell membranes.
Data set [3] is described as follows: Drug level in rat liver microsomes treated with trans-N-(2-(2-(((2S,5S)-2-(6-Aminopyridin-3-yl)-5-methylmorpholino)methyl)cyclopropyl)ethyl)-1H-indole-2-carboxamide assessed as metabolite formation at 10 uM measured after 60 mins in presence of NADPH by LC-HRMS analysis. The class given is ADME, Microsome. For orientation: Liver microsomes are vesicles of endoplasmic reticulum, rich in cytochrome P450 enzymes.

D(2) dopamine receptor, sequence (P14416 whole entry): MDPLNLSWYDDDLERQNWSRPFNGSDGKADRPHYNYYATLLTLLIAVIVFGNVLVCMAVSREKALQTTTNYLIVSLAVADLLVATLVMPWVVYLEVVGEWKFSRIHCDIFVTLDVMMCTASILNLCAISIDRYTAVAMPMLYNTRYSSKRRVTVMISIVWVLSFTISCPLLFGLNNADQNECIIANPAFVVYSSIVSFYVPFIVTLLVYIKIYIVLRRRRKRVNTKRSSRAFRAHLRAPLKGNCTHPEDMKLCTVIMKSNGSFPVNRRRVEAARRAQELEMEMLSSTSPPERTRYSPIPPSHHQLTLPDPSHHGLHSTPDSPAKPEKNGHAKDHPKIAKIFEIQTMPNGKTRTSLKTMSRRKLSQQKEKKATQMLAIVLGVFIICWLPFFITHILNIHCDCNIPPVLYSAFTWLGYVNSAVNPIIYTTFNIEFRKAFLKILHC
D(3) dopamine receptor, sequence (P35462 whole entry): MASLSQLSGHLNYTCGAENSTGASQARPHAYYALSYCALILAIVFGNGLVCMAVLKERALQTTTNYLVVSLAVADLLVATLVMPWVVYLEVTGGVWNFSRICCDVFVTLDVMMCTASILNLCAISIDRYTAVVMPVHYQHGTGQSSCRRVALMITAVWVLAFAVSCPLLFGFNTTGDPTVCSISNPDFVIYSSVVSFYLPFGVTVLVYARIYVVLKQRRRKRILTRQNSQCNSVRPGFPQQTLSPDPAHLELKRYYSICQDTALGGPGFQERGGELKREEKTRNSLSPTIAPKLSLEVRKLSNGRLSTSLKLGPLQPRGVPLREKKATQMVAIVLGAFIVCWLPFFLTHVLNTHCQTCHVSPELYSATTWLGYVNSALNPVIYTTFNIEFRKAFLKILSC

In the case of `C[C@H]1CO[C@@H](c2ccc(N)nc2)CN1CC1CC1CNC(=O)c1cc2ccccc2[nH]1` (stereo in doubt; form 3), the Ratio Ki in the data set listed under Homo sapiens [1] was 0.498. Consider `C[C@H]1CO[C@H](c2ccc(N)nc2)CN1CC1CC1CNC(=O)c1cc2ccccc2[nH]1` (mixture of isomers) [listing 1 of 2 here], for which the Ki (as a rule, a measure of affinity in units of concentration, obtained from inhibition or displacement) at D(2) dopamine receptor amounted to 14.1 µM; on D(3) dopamine receptor, 66.2 µM.

Take `CCCN(CCC)c1ccc(C2CN(CCC)[C@@H](C)CO2)cn1` (stereo partly specified): the Ratio Ki in the data set listed under Homo sapiens [1] came out at 0.391. On D(4) dopamine receptor, the inhibitory constant (Ki) is over 100 µM. As for `CCCN1CCO[C@@H]2c3cc(OCCCCNC(=O)c4ccc5scnc5c4)ccc3OC[C@H]21`, in the data set listed under Homo sapiens [1], the Ratio Ki turned out to be 4.3. On the same count and under the same terms, in the case of `C[C@H]1CO[C@H](c2ccc(N)nc2)CN1` it was 4.67.

Regarding `C[C@H]1CO[C@@H](c2ccc(N)nc2)CN1CC1CC1CNC(=O)c1cc2ccccc2[nH]1` (stereo in doubt; form 1), the Ratio Ki in the data set filed under Homo sapiens [1] stood at 0.182. Same read-out and setting: the result for `C[C@H]1CO[C@H](c2ccc(N)nc2)CN1CC1CC1CNC(=O)c1cc2ccccc2[nH]1` (stereo in doubt; form 2) reads 0.235; that for `O=C(NCCCCNC1COc2ccc(O)cc2C1=O)c1cc2ccccc2[nH]1` (stereo in doubt; 19b), 0.808. On the same count and under the same terms, in the case of `O=C1CCc2ccc(OCCCCN3CCO[C@@H]4c5cc(O)ccc5OC[C@H]43)cc2N1` it was 0.554. Still for that read-out and setting: the result for `CCCN1CCO[C@@H]2c3cc(OCCCCNC(=O)c4cc5cccnc5[nH]4)ccc3OC[C@H]21` reads 3.12. Regarding `CCCN1CCO[C@@H]2c3cc(O)ccc3OC[C@H]21`, the Ratio Ki in the data set filed under Homo sapiens [1] is 12.1; in the data set listed under Homo sapiens [2], 15.7. Take `C[C@H]1CO[C@@H](c2ccc(N)nc2)CN1C/C=C/COc1ccc2c(c1)NC(=O)CC2`: in the data set listed under Homo sapiens [1], the Ratio Ki is 0.297. On the same count and under the same terms, in the case of `CCCN1CCO[C@@H]2c3cc(OCCCCNC(=O)c4cc5ccccc5[nH]4)ccc3OC[C@H]21` it was 6.3. The same measure, in the same setting: the result for `C[C@H]1CO[C@H](c2ccc(N)nc2)CN1CC1CC1CNC(=O)c1cc2ccccc2[nH]1` (stereo in doubt; form 1) reads 0.431. Same read-out and setting: the result for `O=C(NCCCCNC1COc2ccc(O)cc2C1=O)c1cc2ccccc2[nH]1` (stereo in doubt; 19a) reads 0.71. Take `CCCN1CC(c2ccc(N)nc2)OC[C@@H]1C` (stereo partly specified): the values for the Ratio Ki in the data set filed under Homo sapiens [1] and in the data set filed under Homo sapiens [2] were 9.41 and 1.58, respectively. For `CCCN1CCO[C@@H]2c3cc(OCCCCNC(=O)c4ccc5c(c4)Cc4ccccc4-5)ccc3OC[C@H]21`, the Ratio Ki in the data set filed under Homo sapiens [1] is 8.33.

As for `C[C@H]1CO[C@@H](c2ccc(N)nc2)CN1CC1CC1CNC(=O)c1cc2ccccc2[nH]1` (stereo in doubt; form 2), the Ratio Ki in the data set listed under Homo sapiens [1] was 1.75. For `CC1=COC(c2ccc(N)nc2)CN1CC1CC1CCNC(=O)c1cc2ccccc2[nH]1` (stereo unspecified), the Drug metabolism entry in data set [3] is recorded as “Metabolite_Detected”. Consider `C[C@H]1CO[C@@H](c2ccc(N)nc2)CN1CC1CC1CNC(=O)c1cc2ccccc2[nH]1` (stereo in doubt; form 4), for which the Ratio Ki in the data set listed under Homo sapiens [1] stood at 0.435. For `Oc1ccc2c(c1)[C@H]1OCCN[C@@H]1CO2`, the Ratio Ki in the data set listed under Homo sapiens [1] stood at 10.5. Regarding `C[C@H]1CO[C@H](c2ccc(N)nc2)CN1C/C=C/COc1ccc2c(c1)NC(=O)CC2`, the Ratio Ki in the data set filed under Homo sapiens [1] turned out to be 0.289.

For the compound `CCCN1CCO[C@@H]2c3cc(OCCCCNC(=O)c4nc5ccccc5s4)ccc3OC[C@H]21`, the Ratio Ki in the data set filed under Homo sapiens [1] is 4.14. Consider `C[C@H]1CO[C@@H](c2ccc(N)nc2)CN1`, for which the Ratio Ki in the data set listed under Homo sapiens [1] is 5.52. For the same compound, in data set [3], the Drug metabolism entry is given as “Metabolite_Detected”. For `C[C@H]1CO[C@@H](c2ccc(N)nc2)CN1CCCCOc1ccc2c(c1)NC(=O)CC2`, in the data set filed under Homo sapiens [1], the Ratio Ki worked out at 1.11. Same read-out and setting: in the case of `C[C@H]1CO[C@H](c2ccc(N)nc2)CN1CC1CC1CNC(=O)c1cc2ccccc2[nH]1` (mixture of isomers) [listing 2 of 2 here] it was 0.213; in that of `C[C@H]1CO[C@H](c2ccc(N)nc2)CN1CCCCOc1ccc2c(c1)NC(=O)CC2`, 0.11; in that of `CCCN1CCO[C@@H]2c3cc(OCCCCNC(=O)c4cc5ccccc5o4)ccc3OC[C@H]21`, 1.57. Turning to `C[C@H]1COC(c2ccc(N)nc2)CN1CCCCOc1ccc2c(c1)NC(=O)CC2` (stereo partly specified), the figures for the Ratio Ki in the data set listed under Homo sapiens [1] and in the data set filed under Homo sapiens [2] were 0.653 and 18.6, respectively. For the compound `CCc1cc(Cl)c(OC)c(N2CCN(CCCCOc3ccc4c(c3)NC(=O)CC4)CC2)c1`, the Ki was 0.00186 µM at D(2) dopamine receptor and 0.0409 µM at D(3) dopamine receptor. In the data set listed under Homo sapiens [1], the Ratio Ki came to 0.0455. On to `CCCN1CCO[C@@H]2c3cc(OCCCCN4C(=O)c5ccccc5C4=O)ccc3OC[C@H]21`, for which the Ratio Ki in the data set listed under Homo sapiens [1] was 2.11. On the same count and under the same terms, the result for `CCCN1CCO[C@@H]2c3cc(OCCCCOc4ccc5c(c4)NC(=O)CC5)ccc3OC[C@H]21` reads 6.35. `C[C@H]1COC(c2cnc(N)c(O)c2)CN1CC1CC1CCNC(=O)c1cc2ccccc2[nH]1` (stereo partly specified): the Drug metabolism entry in data set [3] is given as “Metabolite_Detected”.
